The values that follow are results of earlier work, collected in PMC8621674, “Formulation and In Vivo Evaluation of a Solid Self-Emulsifying Drug Delivery System Using Oily Liquid Tocotrienols as Model Active Substance” (Pharmaceutics, 2021).

The conditions of this data set: no reference given.

Turning to “caprylocaproyl macrogol-8 glycerides [Labrasol®]”, the HLB value is 12.

On to poloxamer 188, for which the HLB value was 29.
